Reference: patent US8778926B2, “Compounds, pharmaceutical compositions and uses thereof” (Boehringer Ingelheim International GmbH, priority 2011, dated 2014)

What follows are compounds tested against T1, human GPR119 (Homo sapiens, UniProt Q8TDV5) (assay: AlphaScreen cAMP assay, activation of GPR119 in Min-6/hGPR119 cells). Details: MIN6 cells stably transfected with human GPR119; intracellular cAMP; 45 minutes incubation at room temperature.
T1 construct: expression vector for human GPR119 cDNA (Acc. No. NP_848566); expressed in transfected cells
T1 sequence (Q8TDV5 1-335): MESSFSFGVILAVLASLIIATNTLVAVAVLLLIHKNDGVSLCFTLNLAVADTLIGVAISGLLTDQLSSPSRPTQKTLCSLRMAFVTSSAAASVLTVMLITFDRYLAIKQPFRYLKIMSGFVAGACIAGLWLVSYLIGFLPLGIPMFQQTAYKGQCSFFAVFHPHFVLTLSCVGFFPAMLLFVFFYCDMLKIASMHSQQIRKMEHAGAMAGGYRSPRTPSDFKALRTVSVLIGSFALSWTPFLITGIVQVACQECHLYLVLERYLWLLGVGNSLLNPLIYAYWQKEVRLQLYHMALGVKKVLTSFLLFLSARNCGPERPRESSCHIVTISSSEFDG
Type: cell-based
Description: The compounds of formula I according to the invention modulate the activity of the G-protein-coupled receptor GPR119. The effect of the compounds on the activation of GPR119 and on the stimulation of intracellular cAMP concentration is determined using the AlphaScreen cAMP Assay Kit (Cat. No. #6760625R) made by PerkinElmer.
MIN6 cells [Miyazaki J et al. Endocrinology. 1990 July; 127(1):126-32] are stably transfected with an expression vector for human GPR119 cDNA (Acc. No. NP_848566). Min-6/hGPR119 cells are cultured in DMEM, 10% FBS, 500 μM β-mercaptoethanol, 0.3 mg/mL Geniticin, 2 mM GlutaMAX at 37° C. 5% CO2. For the assay, the cells are seeded in Optiplates (white, 384-well, 160 W— barcoded, TC, sterile with lid, Cat. No. #6007688 (Perkin Elmer); 10000 cells/well; 50 μl). The plates covered with lids are then incubated for 24 hours at 37° C./5% CO2. After the medium is aspirated from the wells completely, 10 μl of the test compound are added, the compounds are diluted using stimulating buffer (140 mM NaCl, 3.6 mM KCl, 0.5 mM NaH2PO4, 0.5 mM MgSO4, 1.5 mM CaCl2, 10 mM Hepes, 5 mM NaHCO3; pH 7.4. 0.5 mM IBMX and 0.1% BSA, the final DMSO concentration is 1%). After 45 minutes incubation at room temperature (approx. 20° C.), the cAMP concentrations are determined using the AlphaScreen cAMP Assay Kit (Cat. No. #6760625R from PerkinElmer).
With `CCc1cnc(N2CCC(C3Cc4cc(-c5ccc(C(=O)NCCC(C)O)cc5)ccc4O3)CC2)nc1` (centres unmarked) [Example 66] the EC50 was 63 nM.
Work on `CCc1cnc(N2CCC(C3Cc4cc(-c5ccc(S(C)(=O)=O)cc5)ncc4O3)CC2)nc1` (centres unmarked) [Example 5, 2-[1-(5-Ethyl-pyrimidin-2-yl)-piperidin-4-yl]-5-(4-methanesulfonyl-phenyl)-2,3-dihydro-furo[2,3-c]pyridine] yielded an EC50 of 12 nM.
For `CC(C)c1noc(N2CCC(C3Cc4cc(-c5ccc(S(C)(=O)=O)cc5)ccc4O3)CC2)n1` (centres unmarked) [Example 2, 1-(3-Isopropyl-[1,2,4]oxadiazol-5-yl)-4-[5-(4-methanesulfonyl-phenyl)-2,3-dihydro-benzofuran-2-yl]-piperidine], the EC50 was 27 nM.
In the case of `CCCc1nc(N2CCC([C@@H]3Cc4cc(C5=CCN(S(C)(=O)=O)CC5)ncc4O3)CC2)no1` (single isomer, unassigned) [Example 49], the EC50 is reported as 25 nM.
`CCCc1noc(N2CCC(C3Cc4cc(C5=CCN(S(C)(=O)=O)CC5)ncc4O3)CC2)n1` (centres unmarked) [Example 19, 5-(1-Methanesulfonyl-1,2,3,6-tetrahydro-pyridin-4-yl)-2-[1-(3-propyl-[1,2,4]oxadiazol-5-yl)-piperidin-4-yl]-2,3-dihydro-furo[2,3-c]pyridine] gave an EC50 of 25 nM.
In the case of `CS(=O)(=O)c1ccc(-c2cc3c(cn2)OC(C2CCN(c4nc(C(F)(F)F)no4)CC2)C3)cc1` (centres unmarked) [Example 14, 5-(4-Methanesulfonyl-phenyl)-2-[1-(3-trifluoromethyl-[1,2,4]oxadiazol-5-yl)-piperidin-4-yl]-2,3-dihydro-furo[2,3-c]pyridine], the EC50 is reported as 29 nM.
`Cc1cnc(N2CCC([C@@H]3Cc4cc(C5=CCN(S(C)(=O)=O)CC5)ncc4O3)CC2)nc1` (single isomer, unassigned) [Example 32] was tested, and the EC50 was 29 nM.
Compound `CCCc1nc(N2CCC([C@]3(C)Cc4cc(C5=CCN(S(C)(=O)=O)CC5)ncc4O3)CC2)no1` (single isomer, unassigned) [Example 47] has an EC50 of 6 nM.
